Experimental data taken from patent US20080255155A1, “KINASE INHIBITORS AND USES THEREOF” (priority 2006, published 2008).

Key:
A549 = A549 wound healing inhibition; settings: Homo sapiens; A549 cells; read-out: Potency in cell-based assays A549 wound healing inhibition
VEGF receptor KDR = target: T1, VEGF receptor KDR (Homo sapiens, UniProt P35968); test: In vitro receptor tyrosine kinase assay, VEGF receptor KDR (DELFIA); assay type: biochemical; settings: ATP 0.6 uM, enzyme 5 nM; read-out: Potency in enzyme assays VEGF
T1 construct: made in house; host or cells: Sf9 cells (Spodoptera frugiperda), recombinant baculovirus
T1 sequence (P35968 806-1356): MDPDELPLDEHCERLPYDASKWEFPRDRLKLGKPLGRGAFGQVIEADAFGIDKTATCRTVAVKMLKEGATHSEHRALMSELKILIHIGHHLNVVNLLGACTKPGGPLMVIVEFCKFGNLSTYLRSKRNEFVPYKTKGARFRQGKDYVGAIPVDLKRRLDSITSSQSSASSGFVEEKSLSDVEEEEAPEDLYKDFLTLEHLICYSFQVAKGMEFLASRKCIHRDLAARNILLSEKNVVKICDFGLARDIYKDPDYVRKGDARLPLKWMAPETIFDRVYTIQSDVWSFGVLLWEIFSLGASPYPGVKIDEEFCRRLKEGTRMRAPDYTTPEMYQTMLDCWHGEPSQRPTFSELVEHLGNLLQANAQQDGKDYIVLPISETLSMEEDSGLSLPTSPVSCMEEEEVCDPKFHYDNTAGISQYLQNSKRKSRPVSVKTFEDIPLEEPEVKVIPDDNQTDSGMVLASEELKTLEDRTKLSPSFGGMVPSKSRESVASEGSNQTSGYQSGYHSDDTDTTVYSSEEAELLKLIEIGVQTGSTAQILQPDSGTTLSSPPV
Excerpt: (§1) These tests measure the ability of compounds to inhibit the enzymatic activity of recombinant human c-Met/HGF receptor and VEGF receptor enzymatic activity.
In the case of VEGF receptor KDR a 1.6-kb cDNA corresponding to the catalytic domain of VEGFR2 or KDR (Genbank accession number AF035121 amino acid 806 to 1356) is cloned into the Pst I site of the pDEST20 Gateway vector (Invitrogen) for the production of a GST-tagged version of that enzyme. This construct is used to generate recombinant baculovirus using the Bac-to-Bac system according to the manufacturer's instructions (Invitrogen).
(§2) The GST-VEGFR2806-1356 protein is expressed in Sf9 cells (Spodoptera frugiperda) upon infection with recombinant baculovirus construct. Briefly, Sf9 cells grown in suspension and maintained in serum-free medium (Sf900 II supplemented with gentamycin) at a cell density of about 2×10^6 cells/ml are infected with the above-mentioned viruses at a multiplicity of infection (MOI) of 0.1 during 72 hours at 27° C. with agitation at 120 rpm on a rotary shaker. Infected cells are harvested by centrifugation at 398 g for 15 min. Cell pellets are frozen at −80° C. until purification is performed.
All steps described in cell extraction and purification are performed at 4° C. Frozen Sf9 cell pellets infected with the GST-VEGFR2806-1356 recombinant baculovirus re thawed and gently resuspended in Buffer A (PBS pH 7.3 supplemented with 1 μg/ml pepstatin, 2 μg/ml Aprotinin and leupeptin, 50 μg/ml PMSF, 50 μg/ml TLCK and 10 μM E64 and 0.5 mM DTT) using 3 ml of buffer per gram of cells. Suspension is Dounce homogenized and 1% Triton X-100 is added to the homogenate after which it is centrifuged at 22500 g, 30 min., 4° C. The supernatant (cell extract) is used as starting material for purification of GST-VEGFR2806-1356.
The supernatant is loaded onto a GST-agarose column (Sigma) equilibrated with PBS pH 7.3. Following a four column volume (CV) wash with PBS pH 7.3+1% Triton X-100 and 4 CV wash with buffer B (50 mM Tris pH 8.0, 20% glycerol and 100 mM NaCl), bound proteins are step eluted with 5 CV of buffer B supplemented with 5 mM DTT and 15 mM glutathion. GST-VEGFR2806-1356 enriched fractions from this chromatography step are pooled based on U.V. trace i.e. fractions with high O.D^-280- Final GST-VEGFR2806-1356 protein preparations concentrations are about 0.7 mg/ml with purity approximating 70%. Purified GST-VEGFR2806-1356 protein stocks are aliquoted and frozen at −80° C. prior to use in enzymatic assay.
Inhibition of c-Met/HGF receptor and VEGFR/KDR is measured in a DELFIA™ assay (Perkin Elmer). The substrate poly(Glu4,Tyr) is immobilized onto black high-binding polystyrene 96-well plates. The coated plates are washed and stored at 4° C. During the assay, enzymes are pre-incubated with inhibitor and Mg-ATP on ice in polypropylene 96-well plates for 4 minutes, and then transferred to the coated plates. The subsequent kinase reaction takes place at 30° C. for 10-30 minutes. ATP concentrations in the assay are 10 uM for C-Met (5× the Km) and 0.6 uM for VEGFR/KDR (2× the Km). Enzyme concentration is 25 nM (C-Met) or 5 nM (VEGFR/KDR). After incubation, the kinase reactions are quenched with EDTA and the plates are washed. Phosphorylated product is detected by incubation with Europium-labeled anti-phosphotyrosine MoAb. After washing the plates, bound MoAb is detected by time-resolved fluorescence in a Gemini SpectraMax reader (Molecular Devices). Compounds are evaluated over a range of concentrations and IC50's (concentration of compounds giving 50% inhibition of enzymatic activity) are determined.

DU145 = DU145 scattering inhibition; settings: Homo sapiens, DU-145; DU145 cells; read-out: Potency in cell-based assays DU145 scattering inhibition
[1] = target: T2, recombinant human c-Met/HGF receptor (Homo sapiens, UniProt P08581); test: In vitro receptor tyrosine kinase assay, c-Met (DELFIA); assay type: biochemical; settings: ATP 10 uM, enzyme 25 nM; read-out: Potency in enzyme assays Cmet
T2 construct: His tag; made in house; host or cells: Hi-5 cells (Trichoplusia ni), recombinant baculovirus
T2 sequence (P08581 1078-1337): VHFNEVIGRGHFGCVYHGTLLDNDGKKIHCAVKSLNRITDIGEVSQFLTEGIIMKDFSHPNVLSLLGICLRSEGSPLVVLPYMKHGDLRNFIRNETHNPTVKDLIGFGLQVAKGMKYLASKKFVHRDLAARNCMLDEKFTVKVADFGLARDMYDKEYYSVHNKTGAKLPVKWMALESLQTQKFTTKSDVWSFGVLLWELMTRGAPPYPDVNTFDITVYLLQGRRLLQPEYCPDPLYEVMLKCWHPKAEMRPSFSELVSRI
Excerpt: as §1
A 1.3-kb cDNA corresponding to the intracellular domain of c-Met or c-Met IC (Genbank accession number NP000236-1 amino acid […]) is cloned into the BamHI/XhoI sites of the pBlueBacHis2A vector (Invitrogen) for the production of a histidine-tagged version of that enzyme. This construct is used to generate recombinant baculovirus using the Bac-N-Blue™ system according to the manufacturer's instructions (Invitrogen).
as §2, with “The c-Met IC” for “The GST-VEGFR2806-1356”, “in Hi-5” for “in Sf9”, “cells (Trichoplusia Ni)” for “cells (Spodoptera frugiperda)”, “Briefly, Hi-5” for “Briefly, Sf9”, “of 0.2” for “of 0.1”
All steps described in cell extraction and purification are performed at 4° C. Frozen Hi-5 cell pellets infected with the C-Met IC recombinant baculovirus are thawed and gently resuspended in Buffer A (20 mM Tris pH 8.0, 10% glycerol, 1 μg/ml pepstatin, 2 μg/ml Aprotinin and leupeptin, 50 μg/ml PMSF, 50 μg/ml TLCK and 10 μM E64, 0.5 mM DTT and 1 mM Levamisole) using 3 ml of buffer per gram of cells. The suspension is Dounce homogenized after which it is centrifuged at 22500 g, 30 min., 4° C. The supernatant (cell extract) is used as starting material for purification of c-Met IC.
The supernatant is loaded onto a QsepharoseFF column (Amersham Biosciences) equilibrated with Buffer B (20 mM Tris pH 8.0, 10% glycerol) supplemented with 0.05M NaCl. Following a ten column volume (CV) wash with equilibration buffer, bound proteins are eluted with a 5 CV salt linear gradient spanning from 0.05 to 1M NaCl in Buffer B. Typically, the conductivity of selected fractions rank between 6.5 and 37 mS/cm. This Qsepharose eluate has an estimated NaCl concentration of 0.33M and is supplemented with a 5M NaCl solution in order to increase NaCl concentration at 0.5M and also with a 5M Imidazole (pH 8.0) solution to achieve a final imidazole concentration of 15 mM. This material is loaded onto a HisTrap affinity column (GE Healthcare) equilibrated with Buffer C (50 mM NaPO4 pH 8.0, 0.5M NaCl, 10% glycerol) supplemented with 15 mM imidazole. After a 10 CV wash with equilibration buffer and an 8 CV wash with buffer C+40 mM imidazole, bound proteins are eluted with an 8 CV linear gradient (15 to 500 mM) of imidazole in buffer C. C-Met IC enriched fractions from this chromatography step are pooled based on SDS-PAGE analysis. This pool of enzyme undergoes buffer exchange using PD-10 column (GE Healthcare) against buffer D (25 mM HEPES pH 7.5, 0.1M NaCl, 10% glycerol and 2 mM β-mercaptoethanol). Final C-Met IC protein preparations concentrations are about 0.5 mg/ml with purity approximating 80%. Purified c-Met IC protein stocks are supplemented with BSA at 1 mg/ml, aliquoted and frozen at −80° C. prior to use in enzymatic assay.
Inhibition of c-Met/HGF receptor and VEGFR/KDR is measured in a DELFIA™ assay (Perkin Elmer). The substrate poly(Glu4,Tyr) is immobilized onto black high-binding polystyrene 96-well plates. The coated plates are washed and stored at 4° C. During the assay, enzymes are pre-incubated with inhibitor and Mg-ATP on ice in polypropylene 96-well plates for 4 minutes, and then transferred to the coated plates. The subsequent kinase reaction takes place at 30° C. for 10-30 minutes. ATP concentrations in the assay are 10 uM for C-Met (5× the Km) and 0.6 uM for VEGFR/KDR (2× the Km). Enzyme concentration is 25 nM (C-Met) or 5 nM (VEGFR/KDR). […]

| IC50 (A549) | IC50 (VEGF receptor KDR) | IC50 (DU145) | IC50 [1] | SMILES |
| --- | --- | --- | --- | --- |
| > 10 µM | ≥ 1000 nM | > 10 µM | 250 to 500 nM | CN(C)CCOC(=O)Nc1cc(Oc2ccc(NC(=O)N3CCN(c4ccccc4)C3=O)cc2F)ccn1 [Compound 18d, 2-(dimethylamino)ethyl4-(2-fluoro-4-(2-oxo-3-phenylimidazolidine-1-carboxamido)phenoxy)pyridin-2-ylcarbamate] |
| ≥ 1 µM | 250 to 500 nM | ≥ 1 µM | < 250 nM | CN(C)[C@@H]1CCN(C(=O)Nc2cc(Oc3ccc(NC(=O)N4CCN(c5ccccc5)C4=O)cc3F)ccn2)C1 [Compound 18e, (R)-N-(4-(2-(3-(dimethylamino)pyrrolidine-1-carboxamido)pyridin-4-yloxy)-3-fluorophenyl)-2-oxo-3-phenylimidazolidine-1-carboxamide] |
| 5 to 10 µM | ≥ 1000 nM | > 10 µM | 500 to 1000 nM | O=C(Nc1ccc(Oc2ccnc(Nc3ccccc3)n2)c(F)c1)N1CCN(c2ccccc2)C1=O [Compound 61a, N-(3-fluoro-4-(2-(phenylamino)pyrimidin-4-yloxy)phenyl)-2-oxo-3-phenyl-imidazolidine-1-carboxamide] |
| ≥ 1 µM | 250 to 500 nM | ≥ 1 µM | < 250 nM | O=C(Nc1cc(Oc2ccc(NC(=O)N3CCN(c4ccccc4)C3=O)cc2F)ccn1)N1CCCC1 [Compound 18a, N-(3-Fluoro-4-(2-(pyrrolidine-1-carboxamido)pyridin-4-yloxy)phenyl)-2-oxo-3-phenylimidazolidine-1-carboxamide] |
| 5 to 10 µM | ≥ 1000 nM | 5 to 10 µM | ≥ 1000 nM | O=C(Nc1ccc(Oc2ccncc2)c(F)c1)N1CCN(c2cccc(C(F)(F)F)c2)C1=O [Compound 21c, N-(3-fluoro-4-(pyridin-4-yloxy)phenyl)-2-oxo-3-(3-(trifluoromethyl)phenyl)imidazolidine-1-carboxamide] |
| > 10 µM | ≥ 1000 nM | > 10 µM | ≥ 1000 nM | O=C(NCCN1CCOCC1)c1cc(Oc2ccc(NC(=O)N3CCN(c4ccccc4)C3=O)cc2F)ccn1 [Compound 87c] |
| 5 to 10 µM | < 250 nM | 5 to 10 µM | ≥ 1000 nM | O=C(CC(Nc1ccc(Oc2cc(NC(=O)N3CCCC3)ncn2)c(F)c1)C(F)(F)F)Nc1ccccc1 (stereo not drawn) [Compound 13, N-(6-(2-Fluoro-4-(1,1,1-trifluoro-4-oxo-4-(phenylamino)butan-2-ylamino)phenoxy)pyrimidin-4-yl)pyrrolidine-1-carboxamide] |
| 1 to 5 µM | 250 to 500 nM | 5 to 10 µM | 250 to 500 nM | CNC(=O)c1cc(Oc2ccc(NC(=O)N3CCN(c4ccccc4)C3=O)cc2F)ccn1 [Compound 87a, 4-(2-fluoro-4-(2-oxo-3-phenylimidazolidine-1-carboxamido)phenoxy)-N-methylpicolinamide] |
| 1 to 5 µM | ≥ 1000 nM | 5 to 10 µM | < 250 nM | O=C(Nc1ccc(Oc2ccnc(Nc3ccccc3)c2)c(F)c1)N1CCN(c2ccccc2)C1=O [Compound 70, N-(3-fluoro-4-(2-(phenylamino)pyridin-4-yloxy)phenyl)-2-oxo-3-phenylimidazolidine-1-carboxamide] |
| 1 to 5 µM | ≥ 1000 nM | 5 to 10 µM | 250 to 500 nM | O=C(Nc1ccc(Oc2ccncc2)c(F)c1)N1CCN(c2ccc(Cl)cc2)C1=O [Compound 21f, 3-(4-chlorophenyl)-N-(3-fluoro-4-(pyridin-4-yloxy)phenyl)-2-oxoimidazolidine-1-carboxamide] |
| 5 to 10 µM | ≥ 1000 nM | 5 to 10 µM | 500 to 1000 nM | O=C(Nc1ccc(Oc2ccncc2)c(F)c1)N1CCN(c2cccc(Cl)c2)C1=O [Compound 21g, 3-(3-chlorophenyl)-N-(3-fluoro-4-(pyridin-4-yloxy)phenyl)-2-oxoimidazolidine-1-carboxamide] |
| 5 to 10 µM | ≥ 1000 nM | 5 to 10 µM | 500 to 1000 nM | COc1ccc(Nc2nccc(Oc3ccc(NC(=O)N4CCN(c5ccccc5)C4=O)cc3F)n2)cc1 [Compound 61b, N-(3-fluoro-4-(2-(4-methoxyphenylamino)pyrimidin-4-yloxy)phenyl)-2-oxo-3-phenylimidazolidine-1-carboxamide] |
